Here are results for 16 compounds from patent US11312727B1, “Macrocyclic flu endonuclease inhibitors” (Janssen BioPharma, Inc., priority 2018, dated 2022).

The subject of data set [1] is Influenza strain A549 A/WSN/33 (H1N1). Put plainly: microbe, parasite or virus in culture. The format is cell-based. The settings on record: Influenza A virus, A549, 20 h, A549 cells, influenza A/WSN/33 (H1N1), 20 hours incubation; read-out: A549_A(H1N1) EC50.
Data set [2] in a line: in vitro. The following applies: human, CC50, uninfected A549 cells, CellTiter-Glo. (Cellular ATP, detected with luciferase, serves as a proxy for viable cell number.)

pEC50: −log10 of the molar value.

The term pEC50 denotes the EC50 on a negative log10 scale, so that one unit is a factor of ten. Usually CC50 stands for the concentration giving 50% cytotoxicity. A low value points to harm at low concentration. For `O=C1c2c(O)c(=O)ccn2N2CN1C/C=C/CCc1ccccc1[C@H]2c1cccc(F)n1` (single isomer, unassigned) [Compound 78B, (16*S,E)-16-(6-fluoropyridin-2-yl)-4-hydroxy-7,10,11,16-tetrahydro-6,17-methanobenzo[k]pyrido[1,2-b][1,2,5]triazacyclotridecine-3,5-dione], in data set [1], the pEC50 was 5.19. The midpoint of cytotoxicity in data set [2], the CC50, lay at 61600 nM.
As for `O=C1c2c(O)c(=O)ccn2N2CN1CCC/C=C/COc1ccccc1[C@@H]2c1ccccc1` (single isomer, unassigned) [Compound 67B, (2*S,*Z)-15-hydroxy-2-phenyl-12,13,14,16-tetrahydro-11H-4-oxa-1(1,3)-pyrido[2,1-f][1,2,4]triazina-3(1,2)-benzenacyclodecaphan-6-ene-14,16-dione], in data set [1], the pEC50 was below 6.00. The CC50 in data set [2] was above 2000 nM.
On the same counts, the results for `O=C1c2c(O)c(=O)ccn2N2CN1C/C=C/CCc1cc(F)c(F)cc1[C@@H]2c1ccccn1` (single isomer, unassigned) [Compound 58A, (16*R,E)-13,14-difluoro-4-hydroxy-16-(pyridin-2-yl)-7,10,11,16-tetrahydro-6,17-methanobenzo[k]pyrido[1,2-b][1,2,5]triazacyclotridecine-3,5-dione] are 7.36 and above 2000 nM.
The like results for `CC[C@H]1/C=C/COc2c(ccc(F)c2F)[C@H](c2ccccn2)N2CN1C(=O)c1c(O)c(=O)ccn12` (single isomer, unassigned) [Compound 160BA, (9*S,18*R,*E)-9-ethyl-3,4-difluoro-12-hydroxy-18-(pyridin-2-yl)-6,9-dihydro-18H-10,17-methanobenzo[b]pyrido[1,2-f][1]oxa[5,6,9]triazacyclotridecine-11,13-dione] were, in that order, below 7.30 and above 100 nM.
The like results for `O=C1c2c(O)c(=O)ccn2N2CN1CCCCCc1ccccc1[C@@H]2c1ccccn1` (single isomer, unassigned) [Compound 40A, (17*R)-4-hydroxy-16-(pyridin-2-yl)-7,8,9,10,11,16-hexahydro-6,17-methanobenzo[k]pyrido[1,2-b][1,2,5]triazacyclotridecine-3,5-dione] were, in that order, 7.52 and above 2000 nM.
`O=C1c2c(O)c(=O)ccn2N2CN1CC/C=C/CCc1ccccc1C2c1ccccc1` (centres unmarked) [Compound 14, (*E)-15-hydroxy-2-phenyl-12,13,14,16-tetrahydro-11H-1(1,3)-pyrido[2,1-f][1,2,4]triazina-3(1,2)-benzenacyclononaphan-6-ene-14,16-dione]: the pEC50 in data set [1] is 7.32. This compound returned a CC50 in data set [2] above 4000 nM.
The like results for `CC(C)[C@H]1/C=C/COc2ccccc2[C@H](c2ccccc2)N2CN1C(=O)c1c(O)c(=O)ccn12` (single isomer, unassigned) [Compound 132B, (9*S,18*S,*E)-12-hydroxy-9-isopropyl-18-phenyl-6,9-dihydro-18H-10,17-methanobenzo[b]pyrido[1,2-f][1]oxa[5,6,9]triazacyclotridecine-11,13-dione] were, in that order, 8.03 and above 200 nM.
On the same counts, the results for `Cc1c(F)ccc2c1OC/C=C\CN1CN([C@@H]2c2ccccc2)n2ccc(=O)c(O)c2C1=O` (single isomer, unassigned) [Compound 133A, (18*R,Z)-3-fluoro-12-hydroxy-4-methyl-18-phenyl-6,9-dihydro-18H-10,17-methanobenzo[b]pyrido[1,2-f][1]oxa[5,6,9]triazacyclotridecine-11,13-dione] are 8.39 and above 200 nM.
As to `C[C@H]1/C=C/COc2c(F)cccc2[C@H](c2ccccc2)N2CN1C(=O)c1c(O)c(=O)ccn12` (single isomer, unassigned) [Compound 141BB, (9*S,18*S,E)-4-fluoro-12-hydroxy-9-methyl-18-phenyl-6,9-dihydro-18H-10,17-methanobenzo[b]pyrido[1,2-f][1]oxa[5,6,9]triazacyclotridecine-11,13-dione], the pEC50 in data set [1] is 6.20. This compound also showed a CC50 in data set [2] above 20000 nM.
On the same counts, the results for `O=C1CCN2CN(C(c3ccccc3)c3ccccc3CN1)n1ccc(=O)c(O)c1C2=O` (centres unmarked) [Compound 18, 12-hydroxy-18-phenyl-5,8,9,18-tetrahydro-10,17-methanobenzo[k]pyrido[1,2-b][1,2,5,9]tetraazacyclotridecine-7,11,13(6H)-trione] are 5.10 and above 200000 nM.
With `O=C1c2c(O)c(=O)ccn2N2CN1C/C=C\COc1cccc3c1[C@H]2c1ccccc1CC3` (single isomer, unassigned) [Compound 33A, (19b*R,Z)-4-hydroxy-7,10,15,19b-tetrahydro-14H-13,12-(epiprop[1]en[1]yl[3]ylidene)-6,20-methanobenzo[3,4]cyclohepta[1,2-c]pyrido[1,2-f][1]oxa[5,6,9]triazacyclotridecine-3,5-dione], the pEC50 in data set [1] was below 6.00. Further, the CC50 in data set [2] is above 2000 nM.
Turning to `O=C1c2c(O)c(=O)ccn2N2CN1C1(/C=C/COc3c(ccc(F)c3F)[C@@H]2c2ccccc2)CC1` [Compound 102B, (18'S,E)-3′,4′-difluoro-12′-hydroxy-18′-phenyl-6′H,18′H-spiro[cyclopropane-1,9′-[10,17]methanobenzo[b]pyrido[1,2-f][1]oxa[5,6,9]triazacyclotridecine]-11′,13′-dione], the pEC50 in data set [1] was 5.47. Moreover, the half-maximal cytotoxic concentration (CC50) in data set [2] stood at 33900 nM.
The like results for `O=C1c2c(O)c(=O)ccn2N2CN1CC/C=C\COc1cc(F)c(F)c3c1[C@H]2c1ccccc1SC3` (single isomer, unassigned) [Compound 88B, (23b*S, Z)-16,17-difluoro-6-hydroxy-10,13,18,23b-tetrahydro-9H-1,8-methano[1]benzothiepino[5,4,3-1m]pyrido[2,1-i][1,7,10,11]benzoxatriazacyclotetradecine-5,7-dione] were, in that order, 9.00 and above 200 nM.
The like results for `O=C1c2c(O)c(=O)ccn2N2CN1CCCCOc1ccc(F)cc1[C@@H]2c1ccccc1` (single isomer, unassigned) [Compound 30B, (18*S)-2-fluoro-12-hydroxy-18-phenyl-6,7,8,9-tetrahydro-18H-10,17-methanobenzo[b]pyrido[1,2-f][1]oxa[5,6,9]triazacyclotridecine-11,13-dione] were, in that order, 7.82 and above 2000 nM.
The like results for `O=C1c2c(O)c(=O)ccn2N2CN1C/C=C\COc1ccccc1[C@H]2c1ccccc1F` (single isomer, unassigned) [Compound 36B, (18*S,Z)-18-(2-fluorophenyl)-12-hydroxy-6,9-dihydro-18H-10,17-methanobenzo[b]pyrido[1,2-f][1]oxa[5,6,9]triazacyclotridecine-11,13-dione] were, in that order, 6.09 and above 2000 nM.
Regarding `C[C@@H]1/C=C/COc2ccccc2[C@H](c2ccccc2)N2CN1C(=O)c1c(O)c(=O)ccn12` (single isomer, unassigned) [Compound 29BA, (9*R, 18*S, E)-12-hydroxy-9-methyl-18-phenyl-6,9-dihydro-18H-10,17-methanobenzo[b]pyrido[1,2-f][1]oxa[5,6,9]triazacyclotridecine-11,13-dione], in data set [1], the pEC50 is 5.77. The CC50 in data set [2] was determined as 83100 nM.
